As usually defined, the Dmax is the largest share of the target that was removed. By DC50 is commonly meant the concentration at which degradation of the target reaches its halfway point.

Where two headings read alike, the source gives them in different places.

This experiment concerns the target T1, VAV1 (Homo sapiens, UniProt P15498+Q96SW2).
T1 construct: A heterozygous VAV1 C-terminal HiBiT knock-in pool was generated at Monte Rosa Therapeutics from a clonal Jurkat cell; endogenous in cells; host or cells: Jurkat clone stably expressing LgBiT, homozygous GSPT1-G575N; heterozygous VAV1-HiBiT knock-in pool
As to the kind of experiment: VAV1 degradation activity, VAV1-HiBiT knock-in Jurkat luminescence assay (Example A, Table 1). The following applies: VAV1-HiBiT knock-in Jurkat cells, luminescence read at 6 and 24 hours; for Dmax: Jurkat. Type of experiment: cell-based. A digest of the protocol: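 Luminescence was measured at 6 and 24 h after adding compound (10 μM stock) to VAV1-HiBiT knock-in Jurkat cells, which had been pre-incubated ~16 h at 37° C. in RPMI/10% FBS containing Endurazine. EC50 values came from control-normalised responses fitted to a 3-parameter logistic model with hillslope fixed at 1.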

Setting [1] is: read-out: VAV1 DC50 (nM), class.

`Cn1ccc(COc2ccc(-c3c(C#N)ccc(C4CCC(=O)NC4=O)c3Cl)cc2)n1` (stereo not shown) [Compound 179]: the Dmax was 32.8% (read-out: VAV1 Dmax %) and < 60% (read-out: VAV1 Dmax %, class). For the same molecule, the 50% degradation concentration (DC50) was ≥ 10000 nM (read-out: VAV1 DC50) and > 1000 nM under setting [1].

On to `Cn1ccc(CNc2ccc(-c3cccc(C4CCC(=O)NC4=O)c3Cl)cc2)n1` (stereo not shown) [Compound 180, 3-(2-chloro-4′-(((1-methyl-1H-pyrazol-3-yl)methyl)amino)-[1,1′-biphenyl]-3-yl)piperidine-2,6-dione], for which the Dmax (read-out: VAV1 Dmax %) stood at 88.8% and the maximal degradation (Dmax) (read-out: VAV1 Dmax %, class) fell in the range of 60 to 90%. Also, the DC50 runs as follows: (read-out: VAV1 DC50) 11.5 nM; under setting [1], ≤ 100 nM.

Consider `O=C1CCC(c2cccc(-c3ccc(C(=O)N4CCCC4)cc3)c2Cl)C(=O)N1` (stereo not shown) [Compound 181, 3-(2-chloro-4′-(pyrrolidine-1-carbonyl)-[1,1′-biphenyl]-3-yl)piperidine-2,6-dione], for which the Dmax was 85.9% (read-out: VAV1 Dmax %) and 60 to 90% (read-out: VAV1 Dmax %, class). For the same molecule, the DC50 is 33.9 nM (read-out: VAV1 DC50) and ≤ 100 nM under setting [1].

With `O=C1CCC(c2cccc(-c3ccc(CCn4ccccc4=O)cc3)c2Cl)C(=O)N1` (stereo not shown) [Compound 182, 3-(2-chloro-4′-(2-(2-oxopyridin-1(2H)-yl)ethyl)-[1,1′-biphenyl]-3-yl)piperidine-2,6-dione], the Dmax runs as follows: (read-out: VAV1 Dmax %) 89.3%; (read-out: VAV1 Dmax %, class) 60 to 90%. Further, the DC50 was 11.7 nM (read-out: VAV1 DC50) and ≤ 100 nM under setting [1].

For `Cn1cnc(COc2ccc(-c3cccc(C4CCC(=O)NC4=O)c3Cl)cc2)c1` (stereo not shown) [Compound 183, 3-(2-chloro-4′-((1-methyl-1H-imidazol-4-yl)methoxy)-[1,1′-biphenyl]-3-yl)piperidine-2,6-dione], the Dmax runs as follows: (read-out: VAV1 Dmax %) 95.7%; (read-out: VAV1 Dmax %, class) > 90%. The DC50 was 5.55 nM (read-out: VAV1 DC50) and ≤ 100 nM under setting [1].

On to `Cc1cccc(=O)n1Cc1ccc(-c2cccc(C3CCC(=O)NC3=O)c2Cl)cc1` (stereo not shown) [Compound 184, 3-(2-chloro-4′-((6-methyl-2-oxopyridin-1(2H)-yl)methyl)-[1,1′-biphenyl]-3-yl)piperidine-2,6-dione], for which the Dmax was 92.1% (read-out: VAV1 Dmax %) and > 90% (read-out: VAV1 Dmax %, class). The half-maximal degradation concentration (DC50) was 11.6 nM (read-out: VAV1 DC50) and ≤ 100 nM under setting [1].

As for `O=C1CCC(c2cccc(-c3ccc(-n4ccccc4=O)cc3)c2Cl)C(=O)N1` (stereo not shown) [Compound 185, 3-(2-chloro-4′-(2-oxopyridin-1(2H)-yl)-[1,1′-biphenyl]-3-yl)piperidine-2,6-dione], the Dmax runs as follows: (read-out: VAV1 Dmax %) 97%; (read-out: VAV1 Dmax %, class) > 90%. In addition, the DC50 is 7 nM (read-out: VAV1 DC50) and ≤ 100 nM under setting [1].

Turning to `Cn1cncc1COc1ccc(-c2cccc(C3CCC(=O)NC3=O)c2Cl)cc1` (stereo not shown) [Compound 186, 3-(2-chloro-4′-((1-methyl-1H-imidazol-5-yl)methoxy)-[1,1′-biphenyl]-3-yl)piperidine-2,6-dione], the Dmax (read-out: VAV1 Dmax %) was 95.3% and the Dmax (read-out: VAV1 Dmax %, class) was > 90%. Besides, the DC50 reads like this: (read-out: VAV1 DC50) 13.6 nM; under setting [1], ≤ 100 nM.

Regarding `Cc1cccn(Cc2ccc(-c3cccc(C4CCC(=O)NC4=O)c3Cl)cc2)c1=O` (stereo not shown) [Compound 187, 3-(2-chloro-4′-((3-methyl-2-oxopyridin-1(2H)-yl)methyl)-[1,1′-biphenyl]-3-yl)piperidine-2,6-dione], the Dmax reads like this: (read-out: VAV1 Dmax %) 94.2%; (read-out: VAV1 Dmax %, class) > 90%. Moreover, the DC50 reads like this: (read-out: VAV1 DC50) 9.75 nM; under setting [1], ≤ 100 nM.

For `Cc1ccc(=O)n(Cc2ccc(-c3cccc(C4CCC(=O)NC4=O)c3Cl)cc2)c1` (stereo not shown) [Compound 188, 3-(2-chloro-4′-((5-methyl-2-oxopyridin-1(2H)-yl)methyl)-[1,1′-biphenyl]-3-yl)piperidine-2,6-dione], the Dmax runs as follows: (read-out: VAV1 Dmax %) 95%; (read-out: VAV1 Dmax %, class) > 90%. Moreover, the DC50 by setting is: (read-out: VAV1 DC50) 7.16 nM; under setting [1], ≤ 100 nM.

On to `Cc1ccn(Cc2ccc(-c3cccc(C4CCC(=O)NC4=O)c3Cl)cc2)c(=O)c1` (stereo not shown) [Compound 189, 3-(2-chloro-4′-((4-methyl-2-oxopyridin-1(2H)-yl)methyl)-[1,1′-biphenyl]-3-yl)piperidine-2,6-dione], for which the Dmax is 91.4% (read-out: VAV1 Dmax %) and > 90% (read-out: VAV1 Dmax %, class). The DC50 runs as follows: (read-out: VAV1 DC50) 33.7 nM; under setting [1], ≤ 100 nM.

On to `O=C1CCC(c2cccc(-c3cccc(COC4CCOC4)c3)c2Cl)C(=O)N1` (stereo not shown) [Compound 190, 3-(2-chloro-3′-(((tetrahydrofuran-3-yl)oxy)methyl)-[1,1′-biphenyl]-3-yl)piperidine-2,6-dione], for which the Dmax runs as follows: (read-out: VAV1 Dmax %) 21.5%; (read-out: VAV1 Dmax %, class) < 60%. Also, the DC50 was 3330 nM (read-out: VAV1 DC50) and > 1000 nM under setting [1].

Consider `Cn1cc(CNc2ccc(-c3cccc(C4CCC(=O)NC4=O)c3Cl)cc2)cn1` (stereo not shown) [Compound 193, 3-(2-chloro-4′-(((1-methyl-1H-pyrazol-4-yl)methyl)amino)-[1,1′-biphenyl]-3-yl)piperidine-2,6-dione], for which the Dmax is, setting by setting: (read-out: VAV1 Dmax %) 91.7%; (read-out: VAV1 Dmax %, class) > 90%. In addition, the DC50 is 13.3 nM (read-out: VAV1 DC50) and ≤ 100 nM under setting [1].

Regarding `Cn1ccc(CCc2ccc(-c3cccc(C4CCC(=O)NC4=O)c3Cl)cc2)n1` (stereo not shown) [Compound 194, 3-(2-chloro-4′-(2-(1-methyl-1H-pyrazol-3-yl)ethyl)-[1,1′-biphenyl]-3-yl)piperidine-2,6-dione], the Dmax is 94.1% (read-out: VAV1 Dmax %) and > 90% (read-out: VAV1 Dmax %, class). Moreover, the 50% degradation concentration (DC50) runs as follows: (read-out: VAV1 DC50) 18.4 nM; under setting [1], ≤ 100 nM.

Consider `O=C1CCC(c2cccc(-c3ccc(N4CCC4)cc3)c2Cl)C(=O)N1` (stereo not shown) [Compound 195, 3-(4′-(azetidin-1-yl)-2-chloro-[1,1′-biphenyl]-3-yl)piperidine-2,6-dione], for which the Dmax reads like this: (read-out: VAV1 Dmax %) 79.4%; (read-out: VAV1 Dmax %, class) 60 to 90%. The DC50 is, setting by setting: (read-out: VAV1 DC50) 552 nM; under setting [1], 100 to 1000 nM.

`Cn1ccc(NCc2ccc(-c3cccc(C4CCC(=O)NC4=O)c3Cl)cc2)n1` (stereo not shown) [Compound 196, 3-(2-chloro-4′-(((1-methyl-1H-pyrazol-3-yl)amino)methyl)-[1,1′-biphenyl]-3-yl)piperidine-2,6-dione]: the Dmax is, setting by setting: (read-out: VAV1 Dmax %) 95.6%; (read-out: VAV1 Dmax %, class) > 90%. The DC50 (read-out: VAV1 DC50) was 9.34 nM and the DC50 under setting [1] is ≤ 100 nM.

With `CC(C)(c1ccc(-c2cccc(C3CCC(=O)NC3=O)c2Cl)cc1)N1CCCCC1=O` (stereo not shown) [Compound 197, 3-(2-chloro-4′-(2-(2-oxopiperidin-1-yl)propan-2-yl)-[1,1′-biphenyl]-3-yl)piperidine-2,6-dione], the Dmax runs as follows: (read-out: VAV1 Dmax %) 88.8%; (read-out: VAV1 Dmax %, class) 60 to 90%. The DC50 (read-out: VAV1 DC50) was determined as 33 nM and the DC50 under setting [1] is ≤ 100 nM.

For `O=C1CCC(c2cccc(-c3ccc(C4COC4)cc3)c2Cl)C(=O)N1` (stereo not shown) [Compound 198, 3-(2-chloro-4′-(oxetan-3-yl)-[1,1′-biphenyl]-3-yl)piperidine-2,6-dione], the maximal degradation (Dmax) runs as follows: (read-out: VAV1 Dmax %) 54.6%; (read-out: VAV1 Dmax %, class) < 60%. Moreover, the DC50 is, setting by setting: (read-out: VAV1 DC50) 4840 nM; under setting [1], > 1000 nM.

Regarding `Cc1cc(-c2cccc(C3CCC(=O)NC3=O)c2Cl)ccc1-n1ccccc1=O` (stereo not shown) [Compound 199, 3-(2-chloro-3′-methyl-4′-(2-oxopyridin-1(2H)-yl)-[1,1′-biphenyl]-3-yl)piperidine-2,6-dione], the Dmax is 66.8% (read-out: VAV1 Dmax %) and 60 to 90% (read-out: VAV1 Dmax %, class). The 50% degradation concentration (DC50) is 1280 nM (read-out: VAV1 DC50) and > 1000 nM under setting [1].

Consider `CC1CCCC(=O)N1c1ccc(-c2cccc(C3CCC(=O)NC3=O)c2Cl)cc1` (stereo not shown) [Compound 200, 3-(2-chloro-4′-(2-methyl-6-oxopiperidin-1-yl)-[1,1′-biphenyl]-3-yl)piperidine-2,6-dione], for which the Dmax (read-out: VAV1 Dmax %) turned out to be 97% and the maximal degradation (Dmax) (read-out: VAV1 Dmax %, class) is > 90%. The DC50 runs as follows: (read-out: VAV1 DC50) 5.14 nM; under setting [1], ≤ 100 nM.

Regarding `O=C1CC[C@H](c2cccc(-c3ccc(Cn4ccccc4=O)cc3)c2Cl)C(=O)N1` [Compound 201, (R)-3-(2-chloro-4′-((2-oxopyridin-1(2H)-yl)methyl)-[1,1′-biphenyl]-3-yl)piperidine-2,6-dione], the greatest degradation seen (Dmax) (read-out: VAV1 Dmax %) turned out to be 88.7% and the Dmax (read-out: VAV1 Dmax %, class) was in the range of 60 to 90%. Moreover, the DC50 by setting is: (read-out: VAV1 DC50) 203 nM; under setting [1], 100 to 1000 nM.

For the molecule `O=C1CC[C@@H](c2cccc(-c3ccc(Cn4ccccc4=O)cc3)c2Cl)C(=O)N1` [Compound 202, (S)-3-(2-chloro-4′-((2-oxopyridin-1(2H)-yl)methyl)-[1,1′-biphenyl]-3-yl)piperidine-2,6-dione], the Dmax is 94.6% (read-out: VAV1 Dmax %) and > 90% (read-out: VAV1 Dmax %, class). Also, the DC50 was 14.6 nM (read-out: VAV1 DC50) and ≤ 100 nM under setting [1].

On to `O=C1CCC(c2cccc(-c3ccc(OCc4cc[nH]n4)cc3)c2Cl)C(=O)N1` (stereo not shown) [Compound 203, 3-(4′-((1H-pyrazol-3-yl)methoxy)-2-chloro-[1,1′-biphenyl]-3-yl)piperidine-2,6-dione], for which the Dmax (read-out: VAV1 Dmax %) was determined as 94.6% and the Dmax (read-out: VAV1 Dmax %, class) is > 90%. Also, the DC50 reads like this: (read-out: VAV1 DC50) 29.3 nM; under setting [1], ≤ 100 nM.

For the molecule `O=C1CCC(c2cccc(-c3ccc(N4CCCOC4=O)cc3)c2Cl)C(=O)N1` (stereo not shown) [Compound 204, 3-(2-chloro-4′-(2-oxo-1,3-oxazinan-3-yl)-[1,1′-biphenyl]-3-yl)piperidine-2,6-dione], the Dmax is, setting by setting: (read-out: VAV1 Dmax %) 95.8%; (read-out: VAV1 Dmax %, class) > 90%. Besides, the DC50 runs as follows: (read-out: VAV1 DC50) 12.2 nM; under setting [1], ≤ 100 nM.

As for `O=C1CCC(c2cccc(-c3ccc(N4C(=O)CCCC4=O)cc3)c2Cl)C(=O)N1` (stereo not shown) [Compound 205, 1-(2′-chloro-3′-(2,6-dioxopiperidin-3-yl)-[1,1′-biphenyl]-4-yl)piperidine-2,6-dione], the Dmax reads like this: (read-out: VAV1 Dmax %) 90.4%; (read-out: VAV1 Dmax %, class) > 90%. Also, the DC50 (read-out: VAV1 DC50) came out at 16.4 nM and the DC50 under setting [1] was ≤ 100 nM.

The values are drawn from patent US12257247B2 (Monte Rosa Therapeutics AG, priority 2023, dated 2025).
